# Measured values: US8883745B2, “C—glycolipids with enhanced Th-1 profile” (New York University, priority 2006, dated 2014)
# Tests used:
# Assay type in all cases: in vivo
# IL-12 = IL-12 levels in sera upon i.v. glycolipid administration to C57BL/6 mice (ELISA); set-up: IL-12 levels, test 1 / IL-12 levels, test 2 / IL-12 levels, average / IL-12 levels, Total: unit not given here
# Experimental: (§1) Five- to six-week-old female C57BL/6 mice and BALB/c mice were purchased from Taconic. Each glycolipid was stored at 1 mg/ml in 100% DMSO. Mice were injected intravenously with 1 μg of each glyocolipid diluted in 200 μL sterile phosphate buffered saline (PBS). At indicated time points, sera were collected from each animal, and concentrations of IFN-γ, IL-4, and IL-12 in the sera were evaluated by enzyme-linked immunosorbent assay (ELISA). Serum concentrations of IFN-γ, IL-4, and IL-12 were evaluated using an ELISA kit (eBioscience, San Diego, Calif.). Briefly, 96 well flat-bottom ELISA plates (NUNC) were coated with capture antibody according to the manufacture's recommendation and incubated overnight at 4° C. The plates were washed with PBS+0.05% Tween 20 (PBS-T), then incubated with manufacturer provided blocking solution for 1 hr at room temperature to block non-specific binding sites. After washing with PBS-T, sera diluted 1:10 was added to the wells and incubated for 2 hrs at room temperature. Plates were then incubated at room temperature for 1 hr with biotintylated detection antibody, washed, incubated with avidin conjugated to horse radish peroxidase (HRP) for 30 min at room temperature, washed, and finally incubated with tetramethylbenzidine substrate solution in the dark for 10 minutes at room temperature. The antibodies, avidin-HRP, and substrate solution were all diluted according to the manufacture's recommendation. Reactions were stopped with 2.0N sulfuric acid and the cytokine concentration in each well was determined by comparing the absorbance at 450 nm in each well to known standards. The levels of Th1- and Th2-type cytokines were determined in two different genetic backgrounds, i.e., in C57BL/6 mice and BALB/c mice. The following compounds were administered: A=compound (A-1 trans-conformer), B=compound (A-2), C=compound (A-3), D=compound (A-4), E=compound (A-5), Z=control (PBS alone), CRONY=α-C-GalCer, KRN=α-GalCer, GCK109 (A-1 trans-conformer), GCK151 (A-1 cis-conformer), GCK152 (A-7). The levels of cytokines were measured at 0, 2, 6, 12, 24, 48, and 72 hours after the compound administration. The levels of Th1-type cytokines IFN-γ and IL-12 are summarized in FIGS. 2A-C and 3A-C, respectively. Table 7 provides IFN-γ/IL-4 and IL-12/IL-4 ratios for various compounds, which can be used as indicators of their ability to selectively stimulate Th1-type immune responses.
# IL-4 [1] = assay: IL-4 levels in sera upon i.v. glycolipid administration to BALB/c mice (ELISA); set-up: unit not given here
# Experimental: as §1
# IFN-γ = IFN-γ levels in sera upon i.v. glycolipid administration to BALB/c mice (ELISA); set-up: IFN-γ levels, test 1 / IFN-γ levels, test 2 / IFN-γ levels, average / IFN-γ levels, Total: unit not given here
# Experimental: as §1
# IL-4 [2] = assay: IL-4 levels in sera upon i.v. glycolipid administration to C57BL/6 mice (ELISA); set-up: unit not given here
# Experimental: as §1
smiles,measurement,setting,value
CCCCCCCCCCCCCCCCCC/C=C/CCCCCCCCC(=O)N[C@@H](/C=C/[C@H]1O[C@H](CO)[C@H](O)[C@H](O)[C@H]1O)[C@H](O)[C@H](O)CCCCCCCCCCCCCC [A-1],IL-12/IL-4 (B6),"IL-12; C57BL/6, ratio calculated from Tables 1-6",2.9
same,"IL-12 levels, average","IL-12; C57BL/6, serum, hour 0",5
same,"IL-12 levels, test 1","IL-12; C57BL/6, serum, hour 0",5
same,"IL-12 levels, test 2","IL-12; C57BL/6, serum, hour 0",5
same,"IL-12 levels, average","IL-12; C57BL/6, serum, hour 2",20
same,"IL-12 levels, test 1","IL-12; C57BL/6, serum, hour 2",40
same,"IL-12 levels, test 2","IL-12; C57BL/6, serum, hour 2",0
same,"IL-12 levels, average","IL-12; C57BL/6, serum, hour 6",2181.5
same,"IL-12 levels, test 1","IL-12; C57BL/6, serum, hour 6",1993
same,"IL-12 levels, test 2","IL-12; C57BL/6, serum, hour 6",2370
same,"IL-12 levels, average","IL-12; C57BL/6, serum, hour 12",2071
same,"IL-12 levels, test 1","IL-12; C57BL/6, serum, hour 12",1790
same,"IL-12 levels, test 2","IL-12; C57BL/6, serum, hour 12",2352
same,"IL-12 levels, average","IL-12; C57BL/6, serum, hour 24",54
same,"IL-12 levels, test 1","IL-12; C57BL/6, serum, hour 24",30
same,"IL-12 levels, test 2","IL-12; C57BL/6, serum, hour 24",78
same,"IL-12 levels, average","IL-12; C57BL/6, serum, hour 48",0
same,"IL-12 levels, test 1","IL-12; C57BL/6, serum, hour 48",0
same,"IL-12 levels, test 2","IL-12; C57BL/6, serum, hour 48",0
same,"IL-12 levels, average","IL-12; C57BL/6, serum, hour 72",0
same,"IL-12 levels, test 1","IL-12; C57BL/6, serum, hour 72",0
same,"IL-12 levels, test 2","IL-12; C57BL/6, serum, hour 72",0
same,"IL-12 levels, Total","IL-12; C57BL/6, serum, total over hours 0-72",4332
same,"IL-4 level, average",IL-4 [1]; hour 0,27
same,"IL-4 level, test 1",IL-4 [1]; hour 0,27
same,"IL-4 level, test 2",IL-4 [1]; hour 0,27
same,"IL-4 level, average",IL-4 [1]; hour 2,431.5
same,"IL-4 level, test 1",IL-4 [1]; hour 2,358
same,"IL-4 level, test 2",IL-4 [1]; hour 2,505
same,"IL-4 level, average",IL-4 [1]; hour 6,95.5
same,"IL-4 level, test 1",IL-4 [1]; hour 6,85
same,"IL-4 level, test 2",IL-4 [1]; hour 6,106
same,"IL-4 level, average",IL-4 [1]; hour 12,51
same,"IL-4 level, test 1",IL-4 [1]; hour 12,52
same,"IL-4 level, test 2",IL-4 [1]; hour 12,50
same,"IL-4 level, average",IL-4 [1]; hour 24,41.5
same,"IL-4 level, test 1",IL-4 [1]; hour 24,40
same,"IL-4 level, test 2",IL-4 [1]; hour 24,43
same,"IL-4 level, average",IL-4 [1]; hour 48,44
same,"IL-4 level, test 1",IL-4 [1]; hour 48,46
same,"IL-4 level, test 2",IL-4 [1]; hour 48,42
same,"IL-4 level, average",IL-4 [1]; hour 72,4
same,"IL-4 level, test 1",IL-4 [1]; hour 72,4
same,"IL-4 level, test 2",IL-4 [1]; hour 72,4
same,"IL-4 level, Total",IL-4 [1]; total over hours 0-72,696
same,IFN-γ/IL-4 (BALB/c),"IFN-γ; BALB/c, ratio calculated from Tables 1-6",37
same,"IFN-γ levels, average","IFN-γ; BALB/c, serum, hour 0",27
same,"IFN-γ levels, test 1","IFN-γ; BALB/c, serum, hour 0",27
same,"IFN-γ levels, test 2","IFN-γ; BALB/c, serum, hour 0",27
same,"IFN-γ levels, average","IFN-γ; BALB/c, serum, hour 2",303
same,"IFN-γ levels, test 1","IFN-γ; BALB/c, serum, hour 2",373
same,"IFN-γ levels, test 2","IFN-γ; BALB/c, serum, hour 2",233
same,"IFN-γ levels, average","IFN-γ; BALB/c, serum, hour 6",3990.5
same,"IFN-γ levels, test 1","IFN-γ; BALB/c, serum, hour 6",2814
same,"IFN-γ levels, test 2","IFN-γ; BALB/c, serum, hour 6",5167
same,"IFN-γ levels, average","IFN-γ; BALB/c, serum, hour 12",5514
same,"IFN-γ levels, test 1","IFN-γ; BALB/c, serum, hour 12",4881
same,"IFN-γ levels, test 2","IFN-γ; BALB/c, serum, hour 12",6147
same,"IFN-γ levels, average","IFN-γ; BALB/c, serum, hour 24",15250
same,"IFN-γ levels, test 1","IFN-γ; BALB/c, serum, hour 24",16100
same,"IFN-γ levels, test 2","IFN-γ; BALB/c, serum, hour 24",14400
same,"IFN-γ levels, average","IFN-γ; BALB/c, serum, hour 48",484.5
same,"IFN-γ levels, test 1","IFN-γ; BALB/c, serum, hour 48",441
same,"IFN-γ levels, test 2","IFN-γ; BALB/c, serum, hour 48",528
same,"IFN-γ levels, average","IFN-γ; BALB/c, serum, hour 72",62.5
same,"IFN-γ levels, test 1","IFN-γ; BALB/c, serum, hour 72",62
same,"IFN-γ levels, test 2","IFN-γ; BALB/c, serum, hour 72",63
same,"IFN-γ levels, Total","IFN-γ; BALB/c, serum, total over hours 0-72",25633
same,effect: higher/extended IFN-γ and IL-12 with much lower IL-4 compared to α-GalCer (KRN),"IFN-γ; C57BL/6 and BALB/c mice, 1 μg i.v.",particularly pronounced
same,"IL-4 level, average",IL-4 [2]; hour 0,46
same,"IL-4 level, test 1",IL-4 [2]; hour 0,46
same,"IL-4 level, test 2",IL-4 [2]; hour 0,46
same,"IL-4 level, average",IL-4 [2]; hour 2,1088
same,"IL-4 level, test 1",IL-4 [2]; hour 2,914
same,"IL-4 level, test 2",IL-4 [2]; hour 2,1262
same,"IL-4 level, average",IL-4 [2]; hour 6,109
same,"IL-4 level, test 1",IL-4 [2]; hour 6,90
same,"IL-4 level, test 2",IL-4 [2]; hour 6,128
same,"IL-4 level, average",IL-4 [2]; hour 12,55
same,"IL-4 level, test 1",IL-4 [2]; hour 12,44
same,"IL-4 level, test 2",IL-4 [2]; hour 12,66
same,"IL-4 level, average",IL-4 [2]; hour 24,56.5
same,"IL-4 level, test 1",IL-4 [2]; hour 24,57
same,"IL-4 level, test 2",IL-4 [2]; hour 24,56
same,"IL-4 level, average",IL-4 [2]; hour 48,44
same,"IL-4 level, test 1",IL-4 [2]; hour 48,47
same,"IL-4 level, test 2",IL-4 [2]; hour 48,41
same,"IL-4 level, average",IL-4 [2]; hour 72,88
same,"IL-4 level, test 1",IL-4 [2]; hour 72,61
same,"IL-4 level, test 2",IL-4 [2]; hour 72,115
same,"IL-4 level, Total",IL-4 [2]; total over hours 0-72,1487
